From patent publication EP4574817A1 (LoQus23 Therapeutics Limited, priority 2023, dated 2025)

Molecular target: T1, MutSβ (Homo sapiens, UniProt P20585+P43246)
T1 construct: purchased AMRI
Test: MutSβ ADP Glo Assay
Assay type: biochemical
Conditions: 20nM MutSβ, 30nM CAG DNA, 25 µM ATP, 2 hours at room temperature
Experimental: Biological Example A - MutSβ Assay
• MutSβ (supplied by AMRI) stored at -70°C • ADP Glo Kinase Assay Kit (Promega: V9102) stored at -20°C • ATP (supplied within the ADP Glo Kit) stored at -20°C • 1M KCI (Sigma Aldrich: P9333) stored at 2-8°C • 1 M HEPES pH 7.5 (Gibco: M15630-080) stored at 2-8°C • 1M MgCl2 (Sigma Aldrich: M1028-100mL) stored at 2-8°C • Tween-20 (Sigma Aldrich: P1379) (10% solution) stored at 2-8°C • 500mM DTT (Sigma Aldrich: 10197777001) stored at -20°C • CAG loop DNA for MutSβ (made in house) stored at -20°C • MilliQ water stored at room temperature
• 1. Prepare the buffer fresh each day • 2. Take the enzyme from the freezer, thaw in room temperature water and centrifuge at 13,000 rpm for 10 minutes at 2-8C, then make up enzyme and ATP stocks • 3. Quality Control the multidrop head to a %CV of <2% • 4. Add 3µL of 33.34nM MutSβ and 50.01nM CAG looped DNA solution […] to each well in columns 1 and 3-23 of the plate • 5. Pre-incubate the MutSβ and buffer mix for 10 minutes with the compounds • 6. Wash the multidrop head through with MilliQ water (for at least 30 seconds) • 7. Add 3µL of MutSβ Assay buffer (without enzyme) to columns 2 and 24 for the vehicle controls • 8. Wash the multidrop head through with MilliQ water (for at least 30 seconds) • 9. Add 2µL of 62.5µM ATP to each well of the whole plate, then wash with MilliQ water (for a minimum of 30 seconds) • 10. Centrifuge plate for 1 minute at 1000 rpm • 11. Incubate for 2 hours at room temperature • 12. Add 5µL of ADP Glo reagent to each well of the whole plate and wash the multidrop head with MilliQ water (for a minimum of 30 seconds) • 13. Incubate for 40 minutes at room temperature (minimum requirement) • 14. Add 10µL of Kinase Detection Reagent to each well of the whole plate • 15. Wash the multidrop head with MilliQ water more than 1 minute and then dry • 16. Remove the head and put the cover back on for overnight storage • 17. Incubate for 30 minutes at room temperature (minimum requirement) • 18. Read on a microplate reader

T1 sequence (P43246 whole entry): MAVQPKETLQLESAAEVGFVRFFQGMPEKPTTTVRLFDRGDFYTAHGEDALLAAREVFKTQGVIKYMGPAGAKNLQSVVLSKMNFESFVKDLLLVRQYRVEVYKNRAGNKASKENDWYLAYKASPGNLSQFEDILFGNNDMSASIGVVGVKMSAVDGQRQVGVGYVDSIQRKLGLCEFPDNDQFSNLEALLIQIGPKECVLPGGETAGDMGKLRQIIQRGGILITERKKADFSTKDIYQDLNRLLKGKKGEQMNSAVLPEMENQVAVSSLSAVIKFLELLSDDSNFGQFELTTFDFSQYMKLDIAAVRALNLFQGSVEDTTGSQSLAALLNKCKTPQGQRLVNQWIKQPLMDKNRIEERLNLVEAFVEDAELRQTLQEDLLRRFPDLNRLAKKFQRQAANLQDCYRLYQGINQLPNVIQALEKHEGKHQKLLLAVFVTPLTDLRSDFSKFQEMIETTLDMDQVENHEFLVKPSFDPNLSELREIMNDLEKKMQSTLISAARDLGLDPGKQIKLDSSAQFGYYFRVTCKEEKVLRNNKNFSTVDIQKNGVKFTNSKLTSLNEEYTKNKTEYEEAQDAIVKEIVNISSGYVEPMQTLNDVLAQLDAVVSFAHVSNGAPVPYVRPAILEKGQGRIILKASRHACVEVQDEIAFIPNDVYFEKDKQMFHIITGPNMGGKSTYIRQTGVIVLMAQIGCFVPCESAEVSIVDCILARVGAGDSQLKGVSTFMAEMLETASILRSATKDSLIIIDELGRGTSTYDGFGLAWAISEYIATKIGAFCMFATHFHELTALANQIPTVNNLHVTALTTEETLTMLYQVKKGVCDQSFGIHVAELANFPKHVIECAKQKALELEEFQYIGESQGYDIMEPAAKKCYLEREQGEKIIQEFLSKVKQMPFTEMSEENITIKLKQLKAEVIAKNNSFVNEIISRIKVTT
T1 sequence (P20585 whole entry): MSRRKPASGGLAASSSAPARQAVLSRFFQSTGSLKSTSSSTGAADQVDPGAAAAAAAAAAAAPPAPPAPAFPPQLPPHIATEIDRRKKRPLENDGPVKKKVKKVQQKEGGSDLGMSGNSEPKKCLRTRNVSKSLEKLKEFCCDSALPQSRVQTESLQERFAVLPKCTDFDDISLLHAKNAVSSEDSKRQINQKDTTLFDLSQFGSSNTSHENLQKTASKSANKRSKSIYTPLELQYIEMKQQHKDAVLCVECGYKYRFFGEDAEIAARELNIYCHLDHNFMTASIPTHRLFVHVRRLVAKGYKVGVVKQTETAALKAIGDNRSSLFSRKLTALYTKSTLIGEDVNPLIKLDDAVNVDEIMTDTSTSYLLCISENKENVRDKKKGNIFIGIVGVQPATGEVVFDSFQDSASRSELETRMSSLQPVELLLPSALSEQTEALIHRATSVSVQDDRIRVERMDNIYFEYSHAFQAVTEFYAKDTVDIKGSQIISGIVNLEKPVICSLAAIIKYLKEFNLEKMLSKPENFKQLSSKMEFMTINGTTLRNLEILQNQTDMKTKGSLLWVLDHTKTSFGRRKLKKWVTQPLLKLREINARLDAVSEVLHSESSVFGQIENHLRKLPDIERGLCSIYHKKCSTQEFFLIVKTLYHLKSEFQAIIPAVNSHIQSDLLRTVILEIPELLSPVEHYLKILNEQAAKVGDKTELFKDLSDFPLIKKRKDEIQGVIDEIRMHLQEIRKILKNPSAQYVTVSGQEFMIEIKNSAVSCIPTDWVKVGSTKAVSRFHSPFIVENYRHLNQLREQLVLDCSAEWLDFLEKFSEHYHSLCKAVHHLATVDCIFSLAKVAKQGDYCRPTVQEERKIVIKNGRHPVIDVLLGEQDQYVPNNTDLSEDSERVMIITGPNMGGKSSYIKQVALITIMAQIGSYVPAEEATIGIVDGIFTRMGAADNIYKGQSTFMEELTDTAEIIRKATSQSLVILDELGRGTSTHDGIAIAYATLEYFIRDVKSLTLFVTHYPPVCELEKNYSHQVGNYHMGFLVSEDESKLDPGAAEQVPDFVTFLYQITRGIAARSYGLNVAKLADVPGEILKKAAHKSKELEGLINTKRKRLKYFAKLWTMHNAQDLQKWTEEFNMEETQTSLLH

Molecule	IC50 [µM]
2-((4-methyl-5-(4-methylbenzyl)thiazol-2-yl)amino)-2-oxoethyl isobutylsulfamate [Example 17]	10 to 50
Cc1ccc(Cc2sc(NC(=O)COS(N)(=O)=O)nc2C)cc1 [Example 3, 2-((4-methyl-5-(4-methylbenzyl)thiazol-2-yl)amino)-2-oxoethyl sulfamate]	1 to 10
Cc1nc(NC(=O)COS(=O)(=O)N(C)C)sc1Cc1ccc(F)cc1 [Example 4, 2-((5-(4-fluorobenzyl)-4-methylthiazol-2-yl)amino)-2-oxoethyl dimethylsulfamate]	0.5 to 1
CNS(=O)(=O)OCC(=O)Nc1nc(C)c(Cc2ccc3ccccc3c2)s1 [Example 5, 2-((4-methyl-5-(naphthalen-2-ylmethyl)thiazol-2-yl)amino)-2-oxoethyl methylsulfamate]	1 to 10
Cc1ccc(Cc2sc(NC(=O)COS(=O)(=O)NC3CC3)nc2C)cc1 [Example 6, 2-((4-methyl-5-(4-methylbenzyl)thiazol-2-yl)amino)-2-oxoethyl cyclopropylsulfamate]	1 to 10
CNS(=O)(=O)OCC(=O)Nc1nc(C)c(Cc2ccc(F)c(Cl)c2)s1 [Example 7, 2-((5-(3-chloro-4-fluorobenzyl)-4-methylthiazol-2-yl)amino)-2-oxoethyl methylsulfamate]	≤ 0.5
COCCNS(=O)(=O)OCC(=O)Nc1nc(C)c(Cc2cccc(Cl)c2)s1 [Example 8, 2-((5-(3-chlorobenzyl)-4-methylthiazol-2-yl)amino)-2-oxoethyl (2-methoxyethyl)sulfamate]	0.5 to 1
Cc1ccc(Cc2sc(NC(=O)COS(=O)(=O)N3CCOCC3)nc2C)cc1 [Example 9, 2-((4-methyl-5-(4-methylbenzyl)thiazol-2-yl)amino)-2-oxoethyl morpholine-4-sulfonate]	0.5 to 1
CNS(=O)(=O)OCC(=O)Nc1nc(C)c(Cc2ccccc2C)s1 [Example 11, 2-((4-methyl-5-(2-methylbenzyl)thiazol-2-yl)amino)-2-oxoethyl methylsulfamate]	10 to 50
Cc1nc(NC(=O)COS(=O)(=O)N(C)C)sc1Cc1cccc(C(F)(F)F)c1 [Example 13, 2-((4-methyl-5-(3-(trifluoromethyl)benzyl)thiazol-2-yl)amino)-2-oxoethyl dimethylsulfamate]	1 to 10
CNS(=O)(=O)OCC(=O)Nc1nc(C)c(Cc2ccccc2Cl)s1 [Example 16, 2-((5-(2-chlorobenzyl)-4-methylthiazol-2-yl)amino)-2-oxoethyl methylsulfamate]	1 to 10
CCc1nc(NC(=O)COS(=O)(=O)NC)sc1Cc1ccc(C)cc1 [Example 18, 2-((4-ethyl-5-(4-methylbenzyl)thiazol-2-yl)amino)-2-oxoethyl methylsulfamate]	1 to 10
Cc1ccc(Cc2sc(NC(=O)COS(=O)(=O)N(C)C)nc2C)cc1 [Example 20, 2-((4-methyl-5-(4-methylbenzyl)thiazol-2-yl)amino)-2-oxoethyl dimethylsulfamate]	1 to 10
Cc1ccc(Cc2sc(NC(=O)COS(=O)(=O)N3CC(F)C3)nc2C)cc1 [Example 21, 2-((4-methyl-5-(4-methylbenzyl)thiazol-2-yl)amino)-2-oxoethyl 3-fluoroazetidine-1-sulfonate]	0.5 to 1
Cc1nc(NC(=O)COS(=O)(=O)N(C)C)sc1Cc1ccccc1F [Example 22, 2-((5-(2-fluorobenzyl)-4-methylthiazol-2-yl)amino)-2-oxoethyl dimethylsulfamate]	1 to 10
Cc1ccc(Cc2sc(NC(=O)COS(=O)(=O)NC(C)C)nc2C)cc1 [Example 23, 2-((4-methyl-5-(4-methylbenzyl)thiazol-2-yl)amino)-2-oxoethyl isopropylsulfamate]	1 to 10
CNS(=O)(=O)OCC(=O)Nc1nc(C)c(Cc2cccc(C)c2)s1 [Example 24, 2-((4-methyl-5-(3-methylbenzyl)thiazol-2-yl)amino)-2-oxoethyl methylsulfamate]	1 to 10
Cc1ccc(Cc2sc(NC(=O)COS(=O)(=O)N3CCC3)nc2C)cc1 [Example 25, 2-((4-methyl-5-(4-methylbenzyl)thiazol-2-yl)amino)-2-oxoethyl azetidine-1-sulfonate]	≤ 0.5
CNS(=O)(=O)OCC(=O)Nc1nc(C)c(Cc2ccc(OC)cc2)s1 [Example 26, 2-((5-(4-methoxybenzyl)-4-methylthiazol-2-yl)amino)-2-oxoethyl methylsulfamate]	1 to 10

Molecule	IC50 [µM]
Cc1nc(NC(=O)COS(=O)(=O)N(C)C)sc1Cc1ccccc1 [Example 28, 2-((5-benzyl-4-methylthiazol-2-yl)amino)-2-oxoethyl dimethylsulfamate]	1 to 10
COCCN(C)S(=O)(=O)OCC(=O)Nc1nc(C)c(Cc2ccc(C)cc2)s1 [Example 29, 2-((4-methyl-5-(4-methylbenzyl)thiazol-2-yl)amino)-2-oxoethyl (2-methoxyethyl)(methyl)sulfamate]	0.5 to 1
CNS(=O)(=O)OCC(=O)Nc1nc(C)c(Cc2ccc(Cl)cc2)s1 [Example 30, 2-((5-(4-chlorobenzyl)-4-methylthiazol-2-yl)amino)-2-oxoethyl methylsulfamate]	1 to 10
Cc1ccc(Cc2sc(NC(=O)COS(=O)(=O)N3CCCC3)nc2C)cc1 [Example 31, 2-((4-methyl-5-(4-methylbenzyl)thiazol-2-yl)amino)-2-oxoethyl pyrrolidine-1-sulfonate]	1 to 10
CNS(=O)(=O)OCC(=O)Nc1nc(C)c(Cc2ccc(C(F)(F)F)cc2)s1 [Example 32, 2-((4-methyl-5-(4-(trifluoromethyl)benzyl)thiazol-2-yl)amino)-2-oxoethyl methylsulfamate]	1 to 10
CNS(=O)(=O)OCC(=O)Nc1nc(C)c(Cc2ccc(C(C)C)cc2)s1 [Example 33, 2-((5-(4-isopropylbenzyl)-4-methylthiazol-2-yl)amino)-2-oxoethyl methylsulfamate]	10 to 50
Cc1nc(NC(=O)COS(=O)(=O)N(C)C)sc1CCc1ccccc1 [Example 35, 2-((4-methyl-5-phenethylthiazol-2-yl)amino)-2-oxoethyl dimethylsulfamate]	10 to 50
CNS(=O)(=O)OCC(=O)Nc1nc(C2CC2)c(Cc2ccc(C)cc2)s1 [Example 36, 2-((4-cyclopropyl-5-(4-methylbenzyl)thiazol-2-yl)amino)-2-oxoethyl methylsulfamate]	1 to 10
CNS(=O)(=O)OCC(=O)Nc1nc(C(C)C)c(Cc2ccc(C)cc2)s1 [Example 37, 2-((4-isopropyl-5-(4-methylbenzyl)thiazol-2-yl)amino)-2-oxoethyl methylsulfamate]	10 to 50
CNS(=O)(=O)OCC(=O)Nc1nc(C)c(CCc2ccc(Cl)cc2)s1 [Example 38, 2-((5-(4-chlorophenethyl)-4-methylthiazol-2-yl)amino)-2-oxoethyl methylsulfamate]	10 to 50
CCCNS(=O)(=O)OCC(=O)Nc1nc(C)c(Cc2ccc(C)cc2)s1 [Example 41, 2-((4-methyl-5-(4-methylbenzyl)thiazol-2-yl)amino)-2-oxoethyl propylsulfamate]	1 to 10
Cc1ccc(Cc2sc(NC(=O)COS(=O)(=O)N(C)Cc3ccccc3)nc2C)cc1 [Example 42, 2-((4-methyl-5-(4-methylbenzyl)thiazol-2-yl)amino)-2-oxoethyl benzyl(methyl)sulfamate]	1 to 10
Cc1ccc(Cc2sc(NC(=O)COS(=O)(=O)NC(C)(C)C)nc2C)cc1 [Example 43, 2-((4-methyl-5-(4-methylbenzyl)thiazol-2-yl)amino)-2-oxoethyl tert-butylsulfamate]	10 to 50
CNS(=O)(=O)OCC(=O)Nc1nc(C(F)(F)F)c(Cc2ccc(C)cc2)s1 [Example 44]	1 to 10
Cc1ccc(Cc2sc(NC(=O)COS(=O)(=O)NCc3ccccc3)nc2C)cc1 [Example 45, 2-((4-methyl-5-(4-methylbenzyl)thiazol-2-yl)amino)-2-oxoethyl benzylsulfamate]	1 to 10
CNS(=O)(=O)OCC(=O)Nc1nc(C)c(Cc2ccc(C)cc2)s1 [Example 47, 2-((4-methyl-5-(4-methylbenzyl)thiazol-2-yl)amino)-2-oxoethyl methylsulfamate]	1 to 10
CNS(=O)(=O)OCC(=O)Nc1nc(C)c(Cc2cccc3ccccc23)s1 [Example 48, 2-((4-methyl-5-(naphthalen-1-ylmethyl)thiazol-2-yl)amino)-2-oxoethyl methylsulfamate]	10 to 50
Cc1nc(NC(=O)COS(=O)(=O)NCCF)sc1Cc1cccc(Cl)c1 [Example 49, 2-((5-(3-chlorobenzyl)-4-methylthiazol-2-yl)amino)-2-oxoethyl (2-fluoroethyl)sulfamate]	0.5 to 1
